Experimental data published in patent US20250011726A1, “METHODS AND COMPOSITIONS FOR MAINTAINING AGGREGATE STABILITY AND PLURIPOTENCY OF STEM CELLS” (Trailhead Biosystems Inc., priority 2023, published 2025).

Tests used:
hiPSCs = experiment: Pluripotency marker expression by flow cytometry and qPCR; format: cell-based, human; settings: for factor contribution (FC), NANOG optimization: MODDE optimizer for NANOG
Experimental: 3 ml sample was taken from each bioreactor on day 4 of the culture for qPCR testing. RNA samples were dissolved in Trizol and extracted. Quantification of RNA was performed on epoch reader. A high-Capacity cDNA RT Kit was used for reverse transcription of RNA samples of each bioreactor. 3 replicate samples of cDNA were obtained from 3 replicate samples of each bioreactor. Data collection was performed using QuantStudio for qPCR testing. The runs were performed per the manufacturer's protocol and recommendations. The primers used were NANOG, SOX2, POU5F1 and GAPDH. The data set obtained was then exported to Excel and normalized against corresponding housekeeping gene GAPDH. Final expression levels were expressed as 1/(2^Crt)×1000 and inputted into the MODDE software. A 3 ml sample was taken from each bioreactor on day 4 of the culture for flow testing. The aggregates were dissociated with Accutase for 10 minutes into single cells. Cells were resuspended in PBS and divided into samples for intracellular staining and cells for extracellular staining. Sample for intracellular staining were fixed with a live/dead stain FVS 780, then permeabilized and stained for OCT4 and SOX2.
Pluripotency data was assessed at the end of the experiment through Immunohistochemistry (IHC), flow cytometry and qPCR testing. The experiment was divided into two batches of experiments to be run at different times. Three replicated center point experiments with all five additives at mid-concentrations were used and split between the batches for normalization and model evaluation purposes. The optimization criteria were based on multiple attributes related to aggregate stability, cell growth and pluripotency. Mathematical models were generated and tuned for maximal predictive power and fit. The model responses for each parameter were statistically evaluated for model reproducibility, model validity, fit (R2) and prediction precision (Q2). […] The model had model validity above 0.25 indicating the absence of problems related to outliers and transformation issues.
Attaining maximal growth conditions of iPSC is not meaningful unless the iPSC state characteristics is also maintained. […] At the end of the experiment, using flow cytometry we tested for SSEA4, OCT4, SOX2 and TRA-1-60 while a complimentary q-PCR assessment was conducted for NANOG, OCT4 and SOX2. The results of these experiments were used to model the effect of the additives on pluripotency. […] This is because that until proven that individual factors are not in regulatory conflict (i.e., SOX2, NANOG, or OCT4 being subject to differential control), single-response factor optimization is prudent. As we found, these factors are indeed subject to differential control.

hiPSC aggregates = experiment: Aggregate size, deviation and Aggregate % Error in bioreactor; format: cell-based, human; settings: DS and pluronic F68 at low concentrations; heparin sodium salt and PEG present; FIG. 4B
Experimental: Samples from the bioreactor were taken after slightly mixing using a pipette to avoid sampling bias and gradient formation after settling. 3 ml total was sampled daily for 3 samples of 1 ml for cell count. The cells were first dissociated using Accutase and incubated for 10minutes. Cells were then quenched with E8 then centrifuged at 400×g for 6 minutes. The pellet was resuspended in the same volume of PBS. Samples were then analyzed for total cell count using Attune flow. 3 replicate counts were collected for each bioreactor for each day of culture. 2 samples were collected for aggregate imaging of 500 ul and put on a 24 well plate. EVOS 7000 was used for bright field images of the aggregates. […] A minimum of 30 aggregates were measured for each bioreactor every day of the culture. […] The cell counts were also analyzed for doubling time using GraphPad Prism. […] Using the aggregate size generated from day 1 from all bioreactors and their corresponding cell growth rate, a predicted aggregate size was calculated for day 3 and compared to the actual size measured. The predicted aggregate size was calculated from theoretical aggregate volume. […]
From the cell number, the predicted aggregate volume (V3P) was calculated again from the first equation. […] This is calculated by subtracting the predicted from the actual average size measured and divided by the actual value: […]

[1] = coefficients of flow and qPCR markers, FIG. 3B

Substance	factor contribution (FC), NANOG optimization (hiPSCs)	impact on NANOG (coefficient) (hiPSCs; [1])	impact on OCT4 (coefficient) (hiPSCs; [1])	contribution factor, optimizer for target aggregate % error of 0 (hiPSC aggregates)
dextran sulfate [DS]	48.04	positive	negative	28.05
Heparin sodium salt [reference compound]	21.12			21.71
